Experiment [1] relates to ADP-induced platelet aggregation. Put plainly: Anti-platelet aggregation test in vitro (ADP-induced, rat platelet-rich plasma). To be noted: for inhibition at 100 µM: Platelet, 2 μL of 100 μM compound in 300 μL rat PRP, read-out: inhibition rate on ADP-induced platelet aggregation; for onset of anti-aggregation effect after addition to PRP: immediately after addition. In kind it is cell-based, SD rats. The protocol:
When healthy adult SD rats were anesthetized by intraperitoneal injection of 10% chloral hydrate, fresh whole blood was collected from the abdominal aorta and added to a centrifuge tube anticoagulated with 3.8% sodium citrate solution, and centrifuged at 900 rpm for 10 minutes to remove the upper platelet-rich plasma (PRP) for use. The tube having PRP removed was further centrifuged at 4000 rpm for 10 minutes, and the upper clarified plasma (PPP) was removed for use. In the experiment, Techlink model LBY-NJ4 4-channel platelet aggregator was used to determine the anticoagulant efficacy of each compound.
Into a sample cup containing 300 μL of PRP, 2 μL of 100 μM PGE1, Compound 1 of Example, Compound 2 of Example and methanol (solvent) were first added. After incubated for different periods (0, 1, 2, 4, 7, 10, 15 min), […], of aggregation inducer 180 μM ADP solution was added. The aggregation rate of each sample was measured, and the inhibitory rate of the compound on ADP-induced platelet aggregation was calculated. Inhibition rate %=(solvent aggregation rate−compound aggregation rate)/solvent aggregation rate×100%

The subject of experiment [2] is isolated rabbit blood vessels (thoracic aorta vascular ring). Put plainly: Vasodilation test in vitro (isolated aortic ring). The class given is cell-based, New Zealand white rabbits. The conditions noted are these: Oryctolagus cuniculus; cumulative addition 0.05-25.6 nM; read-out: diastolic efficacy on isolated rabbit blood vessels, EC50. The protocol: In the experiment, rabbits were selected to prepare isolated aortic ring specimens: New Zealand white rabbits, male, weighing (2.5±0.3) kg. The rabbit was stunned with a blunt instrument, fixed on the rabbit dissecting table, and the thoracic aorta was quickly separated, and placed in a petri dish filled with saturated Kerbs solution (containing NaCl 6.9 g, KCl 0.35 g, MgSO4.7H2O 0.29 g, KH2PO4 0.16 g, NaHCO3 2.1 g, CaCl2 0.28 g, glucose 2 g per 1000 mL) at 37° C. and continuously introduced with mixed gas (95% O2, 5% CO2). The remaining blood in the blood vessel was squeezed out, and the peripheral fat and connective tissue were carefully peeled off, and it was cut into 0.5 cm long arterial rings for use. […]
BL-420S biological function experiment system (Chengdu Techman Technology) was used to record the variation of vascular ring tension. After the vascular ring contraction was stable, prostaglandin E1 and the compounds of the Examples were accumulatively added to successively increase the final mass concentration of prostaglandin E1 in the bath tube to 0.05, 0.1, 0.2, 0.4, 0.8, 1.6, 3.2, 6.4, 12.8, 25.6 nM, and the diastolic efficacies of the vascular ring were recorded.

The mark [3] stands for this setting: 10 min, after 10 minutes of incubation.

SMILES strings stand for the structures. Where two headings read alike, the source gives them in different places.

Data on three molecules can be found in US12708604B2, “Lyophilized preparation of prostaglandin E1 methyl ester for injection and production and use thereof” (Xi'an Hanfeng Pharmaceutical Co., Ltd., priority 2018, dated 2026).

In the case of `CCCCC[C@H](O)/C=C/[C@H]1[C@H](O)CC(=O)[C@@H]1CCCCCCC(=O)O` [PGE1, Prostaglandin E1], the inhibition at 100 µM in experiment [1] (4 min, after 4 minutes of incubation) worked out at 4.93%. Further, the “onset of anti-aggregation effect after addition to PRP” value (from here on “onset of anti-aggregation effect”) in experiment [1] (rat PRP) is listed as “take effect immediately”. Besides, in experiment [2], the EC50 was found to be 9.77 nM.
Turning to `CCCCC[C@H](O)/C=C/[C@H]1[C@H](O)CC(=O)[C@@H]1CCCCCCC(=O)OC` [Compound 1], the inhibition at 100 µM in experiment [1] (setting [3]) was determined as 43.7%. Besides, the “onset of anti-aggregation effect” value in experiment [1] (rat PRP) is “take effect immediately”. In addition, the “duration of anticoagulant effect relative to PGE1” value in experiment [1] (rat PRP, versus PGE1) was 2 times. For the same molecule, the EC50 in experiment [2] is 1.09 nM.
Take `CCCCC[C@H](O)/C=C/[C@H]1[C@H](O)CC(=O)[C@@H]1CCCCCCC(=O)OCC` [Compound 2]: the inhibition at 100 µM in experiment [1] (setting [3]) was 51.9%. In experiment [1] (rat PRP), the “onset of anti-aggregation effect” value is recorded as “does not take effect immediately”.
